From patent US20230278953A1, “WATER SOLUBLE PRODRUGS OF PTBA FOR USE IN HDAC INHIBITION AND ENHANCING RENAL RECOVERY FOLLOWING ACUTE KIDNEY INJURY” (KLOTHO THERAPEUTICS, INC., priority 2020, published 2023)
Converted amounts (≈) assume the structure as drawn.

Key:
[1] = Determination of Kinetic Solubility; type: physicochemical; details: phosphate-buffered saline, aqueous buffer, kinetic from dmso stock; PBS pH 7.4, 2% final DMSO, 25° C., two hours; effective range approximately 2-400 μM
Experimental: A 20 mM stock solution of the test compound in 100% DMSO dilutions were prepared to a theoretical concentration of 400 μM in duplicates in phosphate-buffered saline pH 7.4 (138 mM NaCl, 2.7 mM KCl, 10 mM K-phosphate) with 2% final DMSO. The experimental compound dilutions in PBS were further allowed to equilibrate at 25° C. on a thermostatic shaker for two hours and then filtered through HTS filter plates using a vacuum manifold. The filtrates of test compounds were diluted 2-fold with acetonitrile with 2% DMSO before measuring.
In parallel, compound dilutions in 50% acetonitrile/PBS were prepared to theoretical concentrations of 0 μM (blank), 10 μM, 25 μM, 50 μM, 100 μM, and 200 μM with 2% final DMSO to generate calibration curves. Ondansetron was used as reference compound to control proper assay performance 200 μl of each sample was transferred to 96-well plate and measured in 200-550 nm range with 5 nm step.
The concentrations of compounds in PBS filtrate were calculated using a dedicated Microsoft Excel calculation script. Proper absorbance wavelengths for calculations were selected for each compound manually based on absorbance maximums (absolute absorbance unit values for the minimum and maximum concentration points within 0-3 OD range). Each of the final datasets was additionally visually evaluated by the operator and goodness of fit (R2) was calculated for each calibration curve.

[2] = tested on: cisplatin induced acute kidney injury (CI-AKI); test: cisplatin induced acute kidney injury (CI-AKI) in mice, Compound 3; type: in vivo, C57BL/6J mice
Experimental: The aim of the study was to investigate the efficacy of test compounds in the model of cisplatin induced acute kidney injury (CI-AKI) in mice.
Serum analysis for urea (BUN) was performed on the 5th day and 9th days after cisplatin administration. The mean body weight loss per group was calculated every day of the study as percentage loss of initial (day 0) weight for each individual animal.
Study design, animal selection, handling and treatment were all in accordance with the CRO's study protocols and Institutional Animal Care and Use Guidelines Animal treatment and serum samples preparation were conducted by the Animal Laboratory personnel at the CRO. 60 female C57BL/6J mice 9-12 weeks old were randomized by body weight and divided into 2 groups, 30 animals each. Body weights ranged from 13.9 to 22.0 g with an average body weight across all groups 17.75 g (SD=1.30; CV=7.3%). Each mouse was treated with a single dose via IP route of administration with cisplatin at the dose of 11 mg/kg on the day 0 of the study. […] The mice in Group 1 remained untreated after the cisplatin injection until the terminal sacrifice.
Cisplatin was administered without dilution as a factory-made 1 mg/ml solution for infusion at the injection volume of 11 ml/kg for the dose of 11 mg/kg. […] Only freshly prepared formulation was used for each dosing; each working formulation batch was prepared immediately prior to the administration. The working formulations were sterile filtered using 0.2 μm cellulose acetate syringe filters before injections. The dosing volume for the test compound was 5 ml/kg of body weight. The working formulations were administered as transparent clear solutions. Intraperitoneal (IP) route of administration was used in the study. Urea (BUN) was determined in the serum using a commercial kit according to the manufacturer's instructions. […] The rate of absorbance change at λ=340 nm is proportional to the urea concentration. […] Creatinine was measured using mModified Jaffe's method, without deproteinization. […]

[3] = tested on: cisplatin-induced acute kidney injury (CI-AKI); test: cisplatin-induced acute kidney injury (CI-AKI) mouse model, Compound 22; type: in vivo, C57BL/6J mice; details: for gradual recovery of mean body weight: cisplatin 11 mg/kg IP Day 0
Experimental: The aim of the study was to investigate the efficacy of test compound(s) in a (mouse) model for acute kidney injury. Specifically, the study investigated the efficacy of test compound(s) in cisplatin-induced acute kidney injury (CI-AKI) mouse model. For example, the effect of daily repeated intraperitoneal (IP) administration of Compound 22 at doses of 50 mg/kg for 7 consecutive days in four different treatment regimens on development of pathology in mice in CI-AKI model was evaluated. Serum analysis for urea (BUN) was performed on the 5th day and 12th days after cisplatin administration. The mean body weight loss per group was calculated every day of the study as percentage loss of initial (day 0) weight for each individual animal.
Study design, animal selection, handling and treatment were all in accordance with the CRO's study protocols and Institutional Animal Care and Use Guidelines Animal treatment and serum samples preparation were conducted by the Animal Laboratory personnel at the CRO. 100 female C57BL/6J mice 11-14 weeks old were randomized by body weight and divided into five groups, 20 animals each. Body weights ranged from 16.9 to 22.5 g with an average body weight across all groups 19.54 g (SD=1.04; CV=5.3%). Each mouse was treated with a single dose via IP route of administration with cisplatin at the dose of 11 mg/kg on the day 0 of the study. The mice in Group 2 and 4 were repeatedly treated with Compound 22 at the dose of 50 mg/kg with an interval of 24 h for seven consecutive days starting from Day 2 or Day 0 of the study, respectively. […]
To induce acute kidney injury, Cisplatin was administered without dilution as a factory-made 1 mg/ml solution for infusion at the injection volume of 11 ml/kg for the dose of 11 mg/kg. […] Urea (BUN) was determined in the serum using a commercial kit according to the manufacturer's instructions. […] The rate of absorbance change at λ=340 nm is proportional to the urea concentration. […]

[4] = tested on: Ischemia-Reperfusion Induced Acute Kidney Injury (IRI-AKI); test: Ischemia-Reperfusion Induced Acute Kidney Injury (IRI-AKI) in rats; type: in vivo, Sprague Dawley male rats; details: 10 mg/kg IV, seven days repeated; 60 minutes bilateral renal occlusion; 3 days after IRI; vs Vehicle treated group
Experimental: The aim of the study was to investigate the efficacy of test compounds in the model of Ischemia-Reperfusion Induced Acute Kidney Injury (IRI-AKI) in Sprague Dawley male rats. IRI-AKI model was developed in experimental animals by applying bilateral renal occlusion. The duration of the occlusion was equal 60 minutes. For instance, rhe effects of seven days repeated intravenous (IV) administration of compound 22 of 10 mg/kg on pathology dynamics in rats exposed to IRI-AKI was assessed. […] Serum analysis for creatinine was performed one day prior to ischemia-reperfusion surgery, 24 hours after, and on the 3rd, 5th, and 7th day after IRI-AKI intervention. Study design, animal selection, handling and treatment were all in accordance with the CRO's study protocols and Institutional Animal Care and Use Guidelines Animal treatment and serum samples preparation were conducted by the Animal Laboratory personnel at the CRO. 28 male Sprague Dawley rats 11-14 weeks old were randomized by body weight All experimental animal were anesthetized prior to surgical intervention by Telazol at the dose of 40 mg/kg body weight and Xylazine at the dose of 7 mg/kg body weight. Acute renal injury model was achieved by performing bilateral renal occlusion. […] Creatinine was measured using mModified Jaffe's method, without deproteinization. […]

renal progenitor cells = details: zebrafish embryos; proliferation-dependent manner; cited from earlier work
[5] = 50 mg/kg IP, 5th day after the cisplatin injection

solubility kinetic at 2 h [1] [µM] | SMILES | also measured
> 400 | CCN1CCC(OC(=O)CCCSc2ccccc2)CC1.O=C(O)C(F)(F)F [Compound 1, 1-ethylpiperidin-4-yl 4-(phenylsulfanyl)butanoate] | 
> 400 | CN1CCC(C)(OC(=O)CCCSc2ccccc2)CC1.O=C(O)C(F)(F)F [Compound 2, 1,4-dimethylpiperidin-4-yl 4-(phenylsulfanyl)butanoate] | 
 | CN(C)CCOC(=O)CCCSc1ccccc1 [Compound 3, 2-(dimethylamino)ethyl 4-(phenylsulfanyl)butanoate] | mean level of creatinine in serum compared to G1 [2, 5]: significantly less; mean level of urea in serum compared to G1 [2, 5]: significantly less; gradual recovery of mean body weight ([2]; G2: 50 mg/kg IP every 24 h for seven days starting Day 2, cisplatin 11 mg/kg IP Day 0): beginning from the sixth day of the study
396 (≈ 129 µg/mL) | O=C(O)CC[C@@H](NC(=O)CCCSc1ccccc1)C(=O)O [Compound 5] | 
> 400 | O=C(CCCSc1ccccc1)OCC(O)CO (centres unmarked) [Compound 6] | 
385 (≈ 109 µg/mL) | O=C(CCCSc1ccccc1)OCCOCCO [Compound 7] | 
383 | Cl.NCCC[C@@H](NC(=O)CCCSc1ccccc1)C(=O)O [Compound 8] | 
383 | NCCC[C@H](NC(=O)CCCSc1ccccc1)C(=O)N[C@@H](CC(=O)O)C(=O)O.O=C(O)C(F)(F)F [Compound 9] | 
391 | NCCC[C@@H](NC(=O)CCCSc1ccccc1)C(=O)N[C@H](CCC(=O)O)C(=O)O.O=C(O)C(F)(F)F [Compound 11] | 
> 400 | NCCC[C@@H](NC(=O)[C@@H](CCC(=O)O)NC(=O)CCCSc1ccccc1)C(=O)O.O=C(O)C(F)(F)F [Compound 12] | 
> 400 | CN1CCN(CCOC(=O)CCCSc2ccccc2)CC1.O=C(O)C(F)(F)F [Compound 13] | 
387 (≈ 120 µg/mL) | O=C(O)C[C@@H](NC(=O)CCCSc1ccccc1)C(=O)O [Compound 14] | 
≥ 400 | CN1CC2(CC(OC(=O)CCCSc3ccccc3)C2)C1 [Compound 15] | 
> 400 | O=C(CCCSc1ccccc1)OCCNCCO [Compound 16] | 
> 400 | O=C(CCCSc1ccccc1)O[C@@H]1CCNC1.O=C(O)C(F)(F)F [Compound 17] | 
362 | C[C@H](CN(C)C)OC(=O)CCCSc1ccccc1.O=C(O)C(F)(F)F [Compound 18] | 
> 400 | O=C(O)C[C@@H](OC(=O)CCCSc1ccccc1)C(=O)O [Compound 19] | 
> 400 | O=C(O)CC[C@H](NC(=O)[C@H](CO)NC(=O)CCCSc1ccccc1)C(=O)O [Compound 20] | 
> 400 | N[C@@H](COC(=O)CCCSc1ccccc1)C(=O)N[C@H](CCC(=O)O)C(=O)O.O=C(O)C(F)(F)F [Compound 21] | 
398 | C[N+](C)(C)CCOC(=O)CCCSc1ccccc1.[Cl-] [Compound 22, N,N,N-trimethyl-2-{[4-(phenylsulfanyl)butanoyl]oxy}ethan-1-aminium chloride] | gradual recovery of mean body weight ([3]; G2-G3: 50 mg/kg IP once or twice a day for seven days starting Day 2): beginning from the fifth day of the study; mean level of urea in serum compared to G1 ([3]; G2-G5, 50 mg/kg IP, 5th day after the cisplatin injection, vs untreated G1): significantly less; gradual recovery of mean body weight ([3]; G4-G5: 50 mg/kg IP once or twice a day for seven days starting Day 0): beginning from the seventh day of the study; Creatinine level in serum [4]: significantly decreased
399 | NCCCC[C@@H](N)C(=O)NCCOC(=O)CCCSc1ccccc1.O=C(O)C(F)(F)F.O=C(O)C(F)(F)F [Compound 23] | 
390 (≈ 137 µg/mL) | CC(C)[C@@H](N)C(=O)NCCCOC(=O)CCCSc1ccccc1 [Compound 24] | 
 | O=C(O)CCCSc1ccccc1 [PTBA, 4-(phenylthio)butanoic acid] | effect on pool of renal progenitor cells (renal progenitor cells): seemed to expand the pool of renal progenitor cells
